Experimental data as given in US11833159B2, “Non-hormonal steroid modulators of NF-kB for treatment of disease” (ReveraGen BioPharma, Inc., priority 2008, dated 2023).

Assays:
[1] = test system: mdx mice; assay: mdx mouse model: histological evaluation (H&E) of gastrocnemius muscle; format: in vivo; settings: 3 months per oral in feed, Examples 20 and 40 mg/kg/day; for Inflammation of skeletal muscle (H&E histology): in comparison to untreated and prednisolone treated mdx mice; for Degeneration of skeletal muscle (H&E histology) / Regeneration / regenerating muscle fibers (H&E histology): prednisolone 5 mg/kg/day
Experimental: (§1) Separate groups (n=12-14) of mdx mice were treated with prednisolone (5 mg/kg/day; per oral in feed), Example 1 (20 and 40 mg/kg/day; per oral in feed) and Example 2 (20 and 40 mg/kg/day; per oral in feed) for 3 months. All mice underwent 30 min biweekly treadmill exercise during the treatment duration to unmask the mild disease phenotype of mdx mouse model.
Hematoxylin and Eosin staining of gastrocnemius muscle of untreated mdx mice show significant degeneration and inflammation.

[2] = In vivo mdx mouse model of dystrophy: body weight and muscle mass; settings: 5 mg/kg/day per oral in feed, at 33.8 weeks age, P<0.05
Experimental: as §1

[3] = test system: mdx mice; assay: mdx mouse model: in vitro force contractions of EDL muscle; format: in vivo; settings: 5 mg/kg/day per oral in feed
Experimental: as §1
The distal tendon of the extensor digitorum longus (EDL) muscle was tied securely to the lever arm of a servomotor/force transducer (model 305B, Aurora Scientific, Richmond Hill, ON, Canada) and the proximal tendon to a tissue clamp. Muscles were stimulated between two platinum electrodes. […] The muscle length was then measured with calipers and after removal of the muscle from the bath the mass of the muscle was determined. For each muscle, the optimum fiber length (Lf) was calculated by multiplying Lo by a previously determined Lf/Lo ratio of 0.45. Total muscle fiber cross-sectional area was determined by dividing the wet mass by the product of Lf and the density of mammalian skeletal muscle (1.06 mg/mm^3). Maximum isometric specific force (sPo) was determined by dividing Po by the total muscle fiber cross-sectional area.

C[C@]12CCC(=O)C=C1CCC1C2=CC[C@@]2(C)C1CC[C@]2(O)C(=O)CO (stereo partly drawn) [Example 1, (10S,13S,17R)-17-hydroxy-17-(2-hydroxyacetyl)-10,13-dimethyl-6,7,8,10,12,13,14,15,16,17-decahydro-1H-cyclopenta[a]phenanthren-3(2H)-one]
Inflammation of skeletal muscle (H&E histology) [1]: significant decrease | Degeneration of skeletal muscle (H&E histology) [1]: significant decrease | Regeneration / regenerating muscle fibers (H&E histology) [1]: increase in regenerating muscle fibers

C[C@]12C=CC(=O)C=C1CCC1C2=CC[C@@]2(C)C1CC[C@]2(O)C(=O)CO (stereo partly drawn) [Example 2, (10S,13S,17R)-17-hydroxy-17-(2-hydroxyacetyl)-10,13-dimethyl-6,7,8,10,12,13,14,15,16,17-decahydro-3H-cyclopenta[a]phenanthren-3-one]
Inflammation of skeletal muscle (H&E histology) [1]: significant decrease | Degeneration of skeletal muscle (H&E histology) [1]: significant decrease | Regeneration / regenerating muscle fibers (H&E histology) [1]: increase in regenerating muscle fibers

C[C@]12C=CC(=O)C=C1CC[C@@H]1[C@@H]2[C@@H](O)C[C@@]2(C)[C@H]1CC[C@]2(O)C(=O)CO [prednisolone, reference compound]
Body weight versus untreated mice [2]: significantly lower body weight | Specific force of EDL muscle, difference to untreated group [3]: no statistically significant (P<0.05) difference | Degeneration of skeletal muscle (H&E histology) [1]: appeared to increase degeneration | Regeneration / regenerating muscle fibers (H&E histology) [1]: decrease in regeneration
